Common to all, as to assay: Large panel kinase profiling
Common to all, as to type: biochemical
Common to all, as to details: 1 μM test article, 1 mM ATP

One assay has as its target T1, IGF1R (Homo sapiens, UniProt P08069).
T1 construct: AssayQuant Technologies, Inc. (service provider)
In a few lines: (§1)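 Activity is measured in real time from the CSox sensor's fluorescence at 485 nm after 360 nm excitation, sampled every minute. Assays run at 30° C. with 1 mM ATP and a single 1 μM compound dose.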

The target in another assay is T2, IRAK4 (Homo sapiens, UniProt Q9NWZ3).
T2 sequence (Q9NWZ3 1-460): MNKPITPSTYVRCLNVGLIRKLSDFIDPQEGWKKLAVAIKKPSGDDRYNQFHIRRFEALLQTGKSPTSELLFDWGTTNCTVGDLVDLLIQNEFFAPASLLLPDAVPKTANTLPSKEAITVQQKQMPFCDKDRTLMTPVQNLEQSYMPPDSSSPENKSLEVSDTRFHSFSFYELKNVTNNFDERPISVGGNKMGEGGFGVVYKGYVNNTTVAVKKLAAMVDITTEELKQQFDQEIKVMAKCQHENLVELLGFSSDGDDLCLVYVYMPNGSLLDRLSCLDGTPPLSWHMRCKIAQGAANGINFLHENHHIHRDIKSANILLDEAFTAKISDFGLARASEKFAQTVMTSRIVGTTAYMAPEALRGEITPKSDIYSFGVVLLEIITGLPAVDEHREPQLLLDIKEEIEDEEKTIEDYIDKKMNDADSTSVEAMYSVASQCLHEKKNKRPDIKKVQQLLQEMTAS
Summed up: as §1

The target in another assay is T3, JAK2(JH1JH2) (Homo sapiens, UniProt O60674).
T3 construct: JAK2(JH1JH2)
Summed up:
as §1

The next assay deals with LTK (Homo sapiens, UniProt P29376). Summed up: as §1
The target of the next assay is LYNB (Homo sapiens, UniProt P07948). In a few lines: as §1
The target in another assay is T4, MAP3K12 (Homo sapiens, UniProt Q12852).
T4 sequence (Q12852 1-859): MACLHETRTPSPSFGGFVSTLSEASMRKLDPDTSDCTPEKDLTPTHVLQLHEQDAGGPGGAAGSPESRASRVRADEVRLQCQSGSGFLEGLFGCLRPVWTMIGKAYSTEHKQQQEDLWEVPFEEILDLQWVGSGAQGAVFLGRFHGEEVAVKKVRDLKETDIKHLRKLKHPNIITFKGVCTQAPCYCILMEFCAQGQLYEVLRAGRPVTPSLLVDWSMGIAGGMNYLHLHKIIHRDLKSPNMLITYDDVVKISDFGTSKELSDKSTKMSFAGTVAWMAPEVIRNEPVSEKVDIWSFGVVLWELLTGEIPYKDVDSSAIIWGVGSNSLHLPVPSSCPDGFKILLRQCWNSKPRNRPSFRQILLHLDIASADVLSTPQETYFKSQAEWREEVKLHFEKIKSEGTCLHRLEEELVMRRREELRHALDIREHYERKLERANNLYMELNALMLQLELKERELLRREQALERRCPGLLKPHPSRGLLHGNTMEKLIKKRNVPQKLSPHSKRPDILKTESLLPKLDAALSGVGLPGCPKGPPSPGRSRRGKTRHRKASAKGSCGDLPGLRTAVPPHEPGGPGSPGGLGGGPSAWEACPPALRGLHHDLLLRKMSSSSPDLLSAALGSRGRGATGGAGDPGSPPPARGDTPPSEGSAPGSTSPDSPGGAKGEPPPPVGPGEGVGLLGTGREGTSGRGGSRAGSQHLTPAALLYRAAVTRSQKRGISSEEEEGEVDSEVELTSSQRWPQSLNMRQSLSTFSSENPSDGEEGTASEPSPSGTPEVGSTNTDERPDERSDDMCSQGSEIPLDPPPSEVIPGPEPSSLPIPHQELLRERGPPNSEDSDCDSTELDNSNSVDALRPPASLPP
In a few lines: as §1

For another assay, the target named is T5, MAPK9/JNK2 (Homo sapiens, UniProt P45984).
T5 construct: AssayQuant Technologies, Inc. (service provider)
Summed up:
as §1

The next assay addresses PTK6 (Homo sapiens, UniProt Q13882). Summed up:
as §1

A further assay concerns the target RPS6KA2/RSK3 (Homo sapiens, UniProt Q15349). In a few lines:
as §1

In a further assay the target is T6, TBK1 (Homo sapiens, UniProt Q9UHD2).
T6 construct: AssayQuant Technologies, Inc. (contract laboratory that ran the panel)
T6 sequence (Q9UHD2 1-729): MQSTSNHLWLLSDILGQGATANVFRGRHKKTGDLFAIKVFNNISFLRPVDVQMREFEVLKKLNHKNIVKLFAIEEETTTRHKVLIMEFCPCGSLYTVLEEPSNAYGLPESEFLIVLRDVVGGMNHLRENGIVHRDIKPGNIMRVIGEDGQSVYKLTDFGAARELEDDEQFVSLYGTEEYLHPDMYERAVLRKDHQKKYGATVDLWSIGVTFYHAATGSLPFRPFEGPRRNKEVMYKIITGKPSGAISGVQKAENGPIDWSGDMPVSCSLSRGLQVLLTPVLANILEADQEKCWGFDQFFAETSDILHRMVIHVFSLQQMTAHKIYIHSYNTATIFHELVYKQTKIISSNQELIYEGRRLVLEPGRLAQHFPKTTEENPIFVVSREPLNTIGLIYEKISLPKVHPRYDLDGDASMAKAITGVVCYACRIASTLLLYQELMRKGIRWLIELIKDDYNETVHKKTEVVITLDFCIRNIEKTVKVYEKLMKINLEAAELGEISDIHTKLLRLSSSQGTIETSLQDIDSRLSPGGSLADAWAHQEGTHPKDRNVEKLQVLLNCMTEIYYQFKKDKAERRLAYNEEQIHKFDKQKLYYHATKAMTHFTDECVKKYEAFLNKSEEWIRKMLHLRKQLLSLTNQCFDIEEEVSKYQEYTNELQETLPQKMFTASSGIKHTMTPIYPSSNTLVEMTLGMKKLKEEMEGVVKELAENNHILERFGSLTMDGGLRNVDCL
Summed up: as §1

Sequence of LTK (P29376 17-864, species assumed): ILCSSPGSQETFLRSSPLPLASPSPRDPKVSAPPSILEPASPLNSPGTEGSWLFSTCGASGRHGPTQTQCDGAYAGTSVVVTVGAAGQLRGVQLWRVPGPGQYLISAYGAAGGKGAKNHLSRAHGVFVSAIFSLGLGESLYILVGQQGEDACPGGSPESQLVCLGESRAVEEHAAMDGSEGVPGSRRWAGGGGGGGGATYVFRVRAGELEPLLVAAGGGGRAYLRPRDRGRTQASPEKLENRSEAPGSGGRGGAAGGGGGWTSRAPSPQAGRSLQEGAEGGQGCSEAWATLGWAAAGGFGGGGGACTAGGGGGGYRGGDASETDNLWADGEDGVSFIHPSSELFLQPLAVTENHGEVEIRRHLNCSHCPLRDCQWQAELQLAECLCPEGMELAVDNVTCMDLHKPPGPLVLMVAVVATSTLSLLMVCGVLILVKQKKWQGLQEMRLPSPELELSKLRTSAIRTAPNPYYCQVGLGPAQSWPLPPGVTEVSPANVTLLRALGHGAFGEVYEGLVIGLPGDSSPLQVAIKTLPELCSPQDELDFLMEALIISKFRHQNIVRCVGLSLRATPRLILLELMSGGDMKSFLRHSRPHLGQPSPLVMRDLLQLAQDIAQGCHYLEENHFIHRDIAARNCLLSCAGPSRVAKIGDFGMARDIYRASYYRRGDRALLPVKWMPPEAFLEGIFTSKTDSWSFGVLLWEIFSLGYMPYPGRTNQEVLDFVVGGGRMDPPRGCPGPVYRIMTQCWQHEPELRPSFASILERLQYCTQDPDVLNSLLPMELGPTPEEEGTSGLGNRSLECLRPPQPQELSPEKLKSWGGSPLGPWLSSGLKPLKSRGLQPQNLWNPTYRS
T1 sequence (P08069 31-1367, species assumed): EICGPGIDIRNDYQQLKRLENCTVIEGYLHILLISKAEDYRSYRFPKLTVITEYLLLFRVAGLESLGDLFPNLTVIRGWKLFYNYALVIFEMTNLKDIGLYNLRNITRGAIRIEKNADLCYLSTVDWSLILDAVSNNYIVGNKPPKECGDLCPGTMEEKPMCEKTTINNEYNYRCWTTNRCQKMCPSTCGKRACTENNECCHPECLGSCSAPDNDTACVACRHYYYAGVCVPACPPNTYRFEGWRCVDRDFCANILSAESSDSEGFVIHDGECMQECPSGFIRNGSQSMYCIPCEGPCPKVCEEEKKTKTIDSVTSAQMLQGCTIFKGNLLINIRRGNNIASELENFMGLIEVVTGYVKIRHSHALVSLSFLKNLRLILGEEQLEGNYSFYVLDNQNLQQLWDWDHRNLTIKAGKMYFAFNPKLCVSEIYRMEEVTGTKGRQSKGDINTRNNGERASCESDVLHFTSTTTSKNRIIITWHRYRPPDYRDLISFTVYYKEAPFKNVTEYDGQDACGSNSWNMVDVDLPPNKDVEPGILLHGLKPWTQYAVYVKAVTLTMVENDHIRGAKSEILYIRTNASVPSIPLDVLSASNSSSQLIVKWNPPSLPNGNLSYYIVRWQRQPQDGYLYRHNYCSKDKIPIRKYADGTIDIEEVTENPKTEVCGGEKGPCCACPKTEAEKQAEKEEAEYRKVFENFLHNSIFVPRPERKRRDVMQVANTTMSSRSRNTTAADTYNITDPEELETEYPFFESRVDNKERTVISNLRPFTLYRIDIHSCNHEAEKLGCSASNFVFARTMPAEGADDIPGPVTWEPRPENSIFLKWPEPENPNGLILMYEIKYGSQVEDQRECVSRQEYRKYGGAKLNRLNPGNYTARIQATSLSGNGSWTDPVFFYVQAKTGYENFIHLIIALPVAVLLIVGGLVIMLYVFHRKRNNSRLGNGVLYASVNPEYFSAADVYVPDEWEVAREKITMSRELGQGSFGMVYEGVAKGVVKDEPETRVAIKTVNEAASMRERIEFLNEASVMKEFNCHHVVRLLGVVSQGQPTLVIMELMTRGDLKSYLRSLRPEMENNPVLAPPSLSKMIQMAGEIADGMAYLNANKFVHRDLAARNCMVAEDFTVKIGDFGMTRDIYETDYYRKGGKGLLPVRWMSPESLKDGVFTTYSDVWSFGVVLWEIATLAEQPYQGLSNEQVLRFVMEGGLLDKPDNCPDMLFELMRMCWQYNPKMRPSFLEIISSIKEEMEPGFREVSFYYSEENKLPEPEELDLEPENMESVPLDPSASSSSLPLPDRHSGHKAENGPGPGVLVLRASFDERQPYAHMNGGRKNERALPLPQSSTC
T5 sequence (P45984 whole entry): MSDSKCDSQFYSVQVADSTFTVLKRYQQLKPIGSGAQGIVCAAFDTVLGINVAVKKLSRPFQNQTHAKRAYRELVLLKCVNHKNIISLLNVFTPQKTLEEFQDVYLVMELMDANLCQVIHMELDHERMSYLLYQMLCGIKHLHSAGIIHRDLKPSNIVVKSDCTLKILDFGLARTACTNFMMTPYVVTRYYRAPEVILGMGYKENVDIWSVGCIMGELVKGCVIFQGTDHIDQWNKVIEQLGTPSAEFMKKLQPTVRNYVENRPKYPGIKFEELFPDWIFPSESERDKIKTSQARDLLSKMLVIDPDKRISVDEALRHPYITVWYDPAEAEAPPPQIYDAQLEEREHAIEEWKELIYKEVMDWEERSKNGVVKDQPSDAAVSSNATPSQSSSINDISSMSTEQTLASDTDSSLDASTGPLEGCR
Sequence of RPS6KA2/RSK3 (Q15349 whole entry): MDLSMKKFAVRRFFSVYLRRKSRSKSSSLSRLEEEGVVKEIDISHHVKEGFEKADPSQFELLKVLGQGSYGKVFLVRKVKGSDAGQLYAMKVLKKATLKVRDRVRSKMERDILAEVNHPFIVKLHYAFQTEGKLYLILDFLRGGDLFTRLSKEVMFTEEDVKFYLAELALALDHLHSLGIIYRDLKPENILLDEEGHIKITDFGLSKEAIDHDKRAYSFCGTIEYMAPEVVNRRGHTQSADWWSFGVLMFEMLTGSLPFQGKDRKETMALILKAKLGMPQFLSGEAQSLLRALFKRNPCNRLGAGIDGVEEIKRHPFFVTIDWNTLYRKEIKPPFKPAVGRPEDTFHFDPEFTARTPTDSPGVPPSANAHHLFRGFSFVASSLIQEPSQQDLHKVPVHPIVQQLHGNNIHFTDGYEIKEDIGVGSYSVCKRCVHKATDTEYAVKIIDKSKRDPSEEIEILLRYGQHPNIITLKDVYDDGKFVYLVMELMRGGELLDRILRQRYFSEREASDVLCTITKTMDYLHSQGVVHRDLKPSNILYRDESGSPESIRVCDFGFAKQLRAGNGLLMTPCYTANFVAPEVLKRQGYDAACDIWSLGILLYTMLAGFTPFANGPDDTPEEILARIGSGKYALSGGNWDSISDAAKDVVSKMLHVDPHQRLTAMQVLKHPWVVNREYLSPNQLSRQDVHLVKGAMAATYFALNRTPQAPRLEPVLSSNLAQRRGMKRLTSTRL
Sequence of LYNB (P07948 1-491 isoform P07948-2, species assumed): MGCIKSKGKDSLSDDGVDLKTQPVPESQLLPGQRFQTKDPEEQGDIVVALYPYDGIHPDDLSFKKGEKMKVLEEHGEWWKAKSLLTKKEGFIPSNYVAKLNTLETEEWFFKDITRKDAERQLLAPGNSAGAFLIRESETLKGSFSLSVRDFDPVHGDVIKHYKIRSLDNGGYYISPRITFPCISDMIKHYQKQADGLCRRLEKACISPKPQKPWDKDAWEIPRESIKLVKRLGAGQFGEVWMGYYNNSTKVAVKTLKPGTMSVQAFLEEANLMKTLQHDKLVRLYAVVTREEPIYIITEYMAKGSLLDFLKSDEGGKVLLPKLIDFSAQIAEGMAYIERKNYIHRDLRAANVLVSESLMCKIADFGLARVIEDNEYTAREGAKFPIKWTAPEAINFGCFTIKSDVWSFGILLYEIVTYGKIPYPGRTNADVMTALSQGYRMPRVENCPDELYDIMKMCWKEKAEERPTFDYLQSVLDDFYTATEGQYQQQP
T3 sequence (O60674 532-1132 limits assumed, species assumed): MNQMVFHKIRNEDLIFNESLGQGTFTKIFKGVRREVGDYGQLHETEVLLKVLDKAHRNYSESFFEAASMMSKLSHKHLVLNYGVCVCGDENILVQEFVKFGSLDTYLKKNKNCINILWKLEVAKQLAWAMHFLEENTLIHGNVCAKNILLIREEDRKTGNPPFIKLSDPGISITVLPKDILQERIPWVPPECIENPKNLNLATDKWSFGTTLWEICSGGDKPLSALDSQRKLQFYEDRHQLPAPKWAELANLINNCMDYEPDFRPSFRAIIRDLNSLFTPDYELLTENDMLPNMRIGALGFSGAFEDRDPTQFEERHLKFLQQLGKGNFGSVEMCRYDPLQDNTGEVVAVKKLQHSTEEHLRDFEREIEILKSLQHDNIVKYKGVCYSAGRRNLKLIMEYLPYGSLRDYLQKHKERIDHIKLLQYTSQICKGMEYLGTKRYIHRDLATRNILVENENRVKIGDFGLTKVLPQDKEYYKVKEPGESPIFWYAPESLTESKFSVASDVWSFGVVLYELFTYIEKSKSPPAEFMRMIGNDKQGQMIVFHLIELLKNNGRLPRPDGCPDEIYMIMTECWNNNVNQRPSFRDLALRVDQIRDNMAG
Sequence of PTK6 (Q13882 whole entry, species assumed): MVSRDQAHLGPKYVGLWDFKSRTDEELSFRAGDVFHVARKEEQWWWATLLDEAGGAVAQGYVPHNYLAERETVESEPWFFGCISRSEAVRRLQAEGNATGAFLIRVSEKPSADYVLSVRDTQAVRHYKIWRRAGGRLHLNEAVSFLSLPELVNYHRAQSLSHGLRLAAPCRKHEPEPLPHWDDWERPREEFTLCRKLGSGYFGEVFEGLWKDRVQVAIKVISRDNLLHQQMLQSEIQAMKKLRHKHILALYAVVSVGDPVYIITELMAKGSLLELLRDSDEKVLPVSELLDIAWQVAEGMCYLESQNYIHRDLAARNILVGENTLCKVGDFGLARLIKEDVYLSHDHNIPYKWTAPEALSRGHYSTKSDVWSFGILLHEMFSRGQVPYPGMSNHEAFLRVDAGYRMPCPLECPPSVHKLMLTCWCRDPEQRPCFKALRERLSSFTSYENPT

By inhibition is commonly meant the relative decrease from the control value, in per cent. With `C=CC(=O)N1CCCC(c2c(F)cc(C(N)=O)c3[nH]c4c(c23)CCCCC4)C1` (single isomer, unassigned) [Compound 5-6], the inhibition at 1 µM was -16.7% against IGF1R; -4.7% at IRAK4; 1% against JAK2(JH1JH2); 0.6% on LTK; 8.9% at LYNB; 5% at MAP3K12. Moreover, the inhibition at 1 µM against MAPK9/JNK2 was -6.3%; on PTK6 it was -14.1%; at RPS6KA2/RSK3, 1.7%; at TBK1, 10.9%.

For `C=CC(=O)N1CCC[C@@H](c2c(F)cc(C(N)=O)c3[nH]c4c(c23)CC2(CC4)CC2)C1` [Compound 6-2, (S)-5-(1-acryloylpiperidin-3-yl)-6-fluoro-1,2,4,9-tetrahydrospiro[carbazole-3,1′-cyclopropane]-8-carboxamide], the inhibition at 1 µM at IGF1R is -11.6%; on IRAK4, 4.1%; against JAK2(JH1JH2), -9.4%; at LTK it was 18.3%; at LYNB, 28.9%; against MAP3K12 it was -18.8%. Further, the inhibition at 1 µM was 19.7% on MAPK9/JNK2, 22.2% on PTK6, -47.9% against RPS6KA2/RSK3 and -34.6% against TBK1.

On to `C=CC(=O)N1CCC[C@@H](c2c(F)cc(C(N)=O)c3[nH]c4c(c23)CCC4)C1` [Compound 10-2, (S)-8-(1-acryloylpiperidin-3-yl)-7-fluoro-1,2,3,4-tetrahydrocyclo-penta[b]indole-5-carboxamide], for which the inhibition at 1 µM on IGF1R is -26.1%; against IRAK4 it was -9.2%; against JAK2(JH1JH2), -9.8%; against LTK it was 24.4%; against LYNB, 23.2%; on MAP3K12 it was -27.7%. In addition, the inhibition at 1 µM on MAPK9/JNK2 was 3.8%; on PTK6, 10.1%; at RPS6KA2/RSK3, -38%; on TBK1, -31.3%.

For the origin of these results see patent US20220009920A1 (GB005, Inc., priority 2020, published 2022).
